Source: PubChem BioAssay (NCI)
Values joined by “and” are separate entries in the source; they are usually repeats but may differ in a detail not shown here. Equal values may be shown once.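 Protocol summary: plate cells (96-well), add compound at 5 concentrations, incubate 48 h, interpolate endpoints linearly. At the GI50, growth is halved. The concentration for full growth arrest is given as TGI.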

What was measured:
Experiment in all cases: growth of human tumour cells (NCI), 48 h
SR leukemia = test system: SR leukemia
TK-10 renal = test system: TK-10 renal
HT29 colon = test system: HT29 colon
KM12 colon = test system: KM12 colon
HCT-116 colon = test system: HCT-116 colon
HL-60(TB) leukemia = test system: HL-60(TB) leukemia
SK-OV-3 ovarian = test system: SK-OV-3 ovarian
COLO 205 colon = test system: COLO 205 colon
SK-MEL-28 melanoma = test system: SK-MEL-28 melanoma
BT-549 breast = test system: BT-549 breast

Row | Compound | TGI (SR leukemia) | TGI (TK-10 renal) | TGI (HT29 colon) | TGI (KM12 colon) [µM] | TGI (HCT-116 colon) | TGI (HL-60(TB) leukemia) | TGI (SK-OV-3 ovarian) | TGI (COLO 205 colon) | TGI (SK-MEL-28 melanoma) | GI50 (TK-10 renal) | GI50 (HT29 colon) | TGI (BT-549 breast) | GI50 (KM12 colon) [µM] | GI50 (BT-549 breast) | GI50 (HCT-116 colon) | GI50 (SK-OV-3 ovarian) | GI50 (COLO 205 colon) | GI50 (SK-MEL-28 melanoma) | GI50 (SR leukemia) | GI50 (HL-60(TB) leukemia)
1 | O=C(/C(=C\c1ccc(Cl)cc1)c1ccccc1)c1ccccc1 | > 100 µM | > 100 µM | > 100 µM | 74.3 | > 100 µM | 36.3 µM | > 100 µM | > 100 µM | > 100 µM |  |  |  |  |  |  |  |  |  |  | 
2 | COc1cc2c(cc1OC)C1Cc3cc(OC)c(OC)cc3C(C2)N1C |  | > 100 µM | > 100 µM | > 100 | > 75 µM | > 75 µM | > 75 µM | > 75 µM | > 100 µM | 36.3 µM and > 100 µM | 23.5 µM and 54 µM | > 75 µM |  |  |  |  |  |  |  | 
3 | COc1ccc(-n2ccnc2-c2cc(OC)c(OC)c(OC)c2)cc1 |  | 85 µM |  | > 100 | > 100 µM |  | > 100 µM | 5.74 µM | > 100 µM | 4.19 µM | 1.86 µM | > 100 µM | 4.59 | 5.03 µM | 3.9 µM | 5.76 µM | 1.33 µM | 2.99 µM |  | 
4 | OCc1ccc(N2CCc3ccccc3C2)cc1Cl | > 76.4 µM |  | > 55.4 µM | 40.1 | 14.1 µM | 61.4 µM | 8.95 µM | 0.0619 µM | > 82.9 µM |  | < 0.02 µM | 40.8 µM | 13.6 | 17.7 µM | < 0.01 µM | 0.754 µM | 0.0136 µM | 23 µM | 21.9 µM | 17.9 µM
5 | Cc1cc(C(C)(C)C)cc(CNC2CCCCC2)c1O | 53.6 µM | 29.7 µM | 33.7 µM | 46.3 | 28.8 µM |  | 41.9 µM | 31.5 µM | 30.9 µM |  |  | 30 µM |  |  |  |  |  |  |  | 
6 | Clc1ccc(-c2c(C3=NCCCN3)nnn2-c2ccccc2)cc1 | > 100 µM | > 100 µM | > 100 µM | > 100 | > 100 µM | 36.6 µM | > 100 µM | > 100 µM | > 100 µM |  |  |  |  |  |  |  |  |  |  | 
7 | CC(=O)NC1C(OCc2ccccc2)OC(COC(=O)CCCCCCCCCCNc2ccc([N+](=O)[O-])c3[nH]c4ccccc4c(=O)c23)C(O)C1OC(C)C(=O)NC(C)C(=O)NC(CCC(N)=O)C(=O)OCc1ccccc1 (stereo unspecified) | > 100 µM | > 100 µM | > 100 µM | > 100 | > 100 µM | > 100 µM | > 100 µM | > 100 µM | > 100 µM |  |  |  |  |  |  |  |  |  |  | 
8 | NCC1OC(OC2C(CO)OC(OC3C(O)C(N)CC(N)C3OC3OC(CO)C(O)CC3N)C2O)C(N)C(O)C1OC1OC(CO)C(O)C(O)C1O (stereo unspecified) | > 50 µg/mL | > 50 µg/mL | > 50 µg/mL |  | > 50 µg/mL | > 50 µg/mL | > 50 µg/mL | > 50 µg/mL | > 50 µg/mL | > 50 µg/mL | > 50 µg/mL | > 50 µg/mL |  | > 50 µg/mL | > 50 µg/mL | > 50 µg/mL | > 50 µg/mL | > 50 µg/mL | > 50 µg/mL | > 50 µg/mL
9 | COc1cc(-c2cc(-c3cc(OC)c(OC)c(OC)c3)nc3nc(N)[nH]c(=O)c23)ccc1Oc1ccnc2cc(Cl)ccc12 | 29.6 µM |  | 25.4 µM | 14.9 | 22.2 µM | 8.22 µM | 9.36 µM | 30 µM | > 100 µM |  | 10.5 µM | 20.8 µM | 0.548 | 2.91 µM | 1.29 µM | 2.95 µM | 12.9 µM | 4.75 µM | 0.468 µM | 2.45 µM
10 | COc1cc([C@@H]2C[C@H]2c2cc(SC)n[nH]2)cc(OC)c1OC |  | 52.5 µM | > 100 µM | 32.8 | 85.7 µM |  | 65.2 µM | 70 µM | > 100 µM | 22.5 µM | 26.9 µM | 42 µM | 15.2 | 16.2 µM | 23.6 µM | 17.4 µM | 20.5 µM | 23.5 µM |  | 
11 | COc1ccc(C2=NN(C(=O)c3cc(OC)c(OC)c(OC)c3)C(c3ccc(N(C)C)cc3)C2)cc1 (stereo unspecified) |  | > 100 µM |  | > 100 |  | 2.87 µM | 58.2 µM |  | > 59.5 µM | 0.682 µM | 0.395 µM | > 100 µM | 0.46 | 1.58 µM | 0.439 µM | 0.463 µM |  | 0.511 µM | 0.426 µM | 0.499 µM
12 | CCCCCCCCCCCCOC1C(CNC(=O)C2OC3OC(C)(C)OC3C2NC(=O)Nc2ccc(CC(=O)NC(Cc3ccccc3)C(=O)O)cc2)OC2OC(C)(C)OC21 (stereo unspecified) |  | > 25 µM | > 25 µM | > 25 | > 25 µM | > 25 µM | > 25 µM | > 25 µM | > 25 µM | > 25 µM | > 25 µM | > 25 µM | > 25 | 22.7 µM | > 25 µM | > 25 µM | > 25 µM | > 25 µM |  | > 25 µM
13 | COc1cc(C(=O)N/N=C/c2ccc(N(C)C)cc2)cc(OC)c1OC |  |  |  | 26.4 | > 100 µM |  | > 31.1 µM | 1.64 µM | > 100 µM |  | 0.347 µM | > 26.7 µM | 0.428 | 0.696 µM | 0.392 µM | 0.478 µM | 0.406 µM | 0.622 µM | 0.287 µM | 0.303 µM
14 | CC1OC(OC2C(OC3CCC4(C)C(CCC5(C)C4CC=C4C6CC(C)(C)CCC6(C(=O)O)CCC45C)C3(C)CO)OCC(O)C2O)C(O)C(O)C1O (stereo unspecified) | 9.74 µM | 40.8 µM | 44.7 µM | 21.7 | > 100 µM |  | 33.5 µM | 44.4 µM | 39.8 µM |  |  | 35 µM |  |  |  |  |  |  |  | 
15 | O=C(COC(=O)c1cccc2c(=O)c3ccccc3[nH]c12)Nc1ccc(C(=O)O)cc1 | > 100 µM | > 10 µM | > 100 µM | > 100 | > 100 µM | > 100 µM | > 100 µM | > 100 µM | > 100 µM |  |  |  |  |  |  |  |  |  |  | 
16 | CC(=O)OC1CC2C3CCC4C[C@@H](NC(=O)C=C(C)C)CC[C@]4(C)C3CC[C@]2(C)[C@H]1C(C)N(C)C (stereo partly specified) |  | 13.3 µM | 1.47 µM | 10.4 | 2.22 µM | 5.46 µM | 7.38 µM | 3.14 µM | 3.39 µM | 5.45 µM | 0.376 µM | 11.1 µM | 2.55 | 4.21 µM | 0.854 µM | 2.79 µM | 1.51 µM | 1.75 µM |  | 2.23 µM
